Assay results from patent US10226457B2, “Systems and methods for treating an opioid-induced adverse pharmacodynamic response” (Purdue Pharma L.P., priority 2014, dated 2019).

Columns and labels:
male Sprague-Dawley rats [1] = assay: Stomach weight (gastric emptying) after charcoal meal; type: in vivo, rat; conditions: morphine sulfate 1-10 mg/kg SC, 0.5 hour before charcoal meal; vs vehicle
Description: Morphine sulfate (1-10 mg/kg) or 0.9% normal saline (vehicle) was administered SC to the test subjects. 0.5 hour later, a charcoal meal (1 ml/100 grams) was administered PO to the test subjects. One hour after the charcoal meal, the test subjects were euthanized by CO2 and the stomachs were removed and weighed. Data were analyzed using a one-way ANOVA followed by the Dunnett's Multiple Comparisons test where *P<0.05, **P<0.01 and ***P<0.001. […] This effect was dose dependent with a greater magnitude of effect observed with increasing dose.

male Sprague-Dawley rats [2] = assay: Rat hot plate assay; conditions: for hot plate MED (acute pain): 52° C., cutoff 30 seconds
Description: Morphine sulphate (1-10 mg/kg) was dissolved in 0.9% normal saline solution (NSS)(vehicle) and administered SC 1 hour prior to testing against vehicle. Data were analyzed by a two-way ANOVA using a Bonferroni Multiple Comparison Test,***P<0.001.
Morphine sulphate (1-10 mg/kg) was dissolved in 0.9% normal saline solution (NSS)(vehicle) and administered SC 1 hour prior to testing against vehicle. % MPE=Percent Maximum Possible Effect. % MPE=(test latency-baseline)/(cutoff-baseline). Data was analyzed using a Bonferroni Multiple Comparison Test,***P<0.001.
Morphine sulphate (10 mg/kg), the positive control, was dissolved in 0.9% NSS (vehicle). The formulations were administered SC 1 hour prior to testing against vehicle. Data were analyzed by a two-way ANOVA using a Bonferroni multiple comparisons test, where *P<0.05 and ***P<0.001. Data are represented as the means+S.E.M.
Morphine sulphate (10 mg/kg) was dissolved in 0.9% NSS (vehicle). The formulations were administered SC 1 hour prior to testing against vehicle. % MPE=Percent Maximum Possible Effect. % MPE=(test latency-baseline)/(cutoff (30 s)-baseline). Data were analyzed by a two-way ANOVA using Bonferroni Multiple Comparisons test for post-hoc analysis, where *P<0.05 and ***P<0.001. Data are represented as the means+SEM.
The positive control, morphine sulfate in 0.9% NS, was administered SC 1 hour prior to testing. Rats were assessed one day prior (BL) and then 1, 3 and 5 hours post-dosing. Hot Plate was set to 52° C. and cutoff was 30 seconds. Data were analyzed by a two-way ANOVA using a Bonferroni Multiple Comparisons Test, where *P<0.05, ***P<0.001 and ****P<0.0001 versus vehicle. Data are represented as the means+S.E.M from two combined studies.
Oxycodone hydrochloride (0.3-5 mg/kg) was dissolved in 0.9% normal saline solution (NSS)(vehicle) and administered SC 1 hour prior to testing against vehicle. Hot plate was set to 52° C. and cutoff was 30 seconds. Data were analyzed by a two-way ANOVA using a Bonferroni multiple comparisons test, where ****P<0.0001. Data are represented as the means+S.E.M.
Compound was administered SC 1 hour prior to testing. Oxycodone hydrochloride (0.3-5 mg/kg) was dissolved in 0.9% normal saline solution (NSS)(vehicle) and administered SC 1 hour prior to testing against vehicle. Hot plate was set to 52° C. and cutoff was 30 seconds. % MPE=. Percent Maximum Possible Effect. % MPE=(test latency-baseline)/(cutoff (30 s)-baseline). Data were analyzed by a two-way ANOVA using Bonferroni Multiple Comparisons test for post-hoc analysis, ****P<0.000. Data are represented as the means+SEM.
Oxycodone HCl was administered SC 1 hour prior to testing. Thermal latency was assessed the day prior (BL) and then 1, 3 and 5 hours post-oxycodone dosing. The hotplate was set to 52° C. and the cutoff was 30 seconds. Oxycodone was dissolved in 0.9% NS (vehicle). […] Data were analyzed by a two-way ANOVA using the Bonferroni Multiple Comparisons test for post-hoc analysis where, ***P<0.001. Data are represented as the means+SEM.
Oxycodone HCl was administered PO 1 hour prior to testing, while morphine sulfate, the positive control, was administered SC 1 hour prior to testing. Behavior was assessed the day prior (BL) and then 1, 3, 5 and 24 hours post-compound administration. The hot plate was set to 52° C. and the cutoff was 30 seconds. Oxycodone was dissolved in water (vehicle), while morphine sulfate was dissolved in 0.9% NS. Data were analyzed by a two-way ANOVA using a Bonferroni Multiple Comparisons Test, where ****P<0.0001.
Rats were assessed for thermal latency the day prior to dosing, then 1.5, 3 and 5 hours post-morphine administration. Data were analyzed by a two-way ANOVA using the Bonferroni Multiple Comparisons Test, where ****P<0.0001 compared to vehicle+vehicle. Data are represented as the means+S.E.M.

male Sprague-Dawley rats [3] = assay: Rat tail flick assay; conditions: for tail flick MED (acute pain): intensity 40, cutoff 20 seconds
Description: Morphine sulphate (1-10 mg/kg) was dissolved in 0.9% normal saline solution (NSS)(vehicle) and administered SC 1 hour prior to testing against vehicle. Data were analyzed by a two-way ANOVA using a Bonferroni post-hoc test, *P<0.05, ***P<0.001.
Morphine sulphate (1-10 mg/kg) was dissolved in 0.9% normal saline solution (NSS)(vehicle) and administered SC 1 hour prior to testing against vehicle. % MPE=Percent of Maximum Possible Effect. % MPE=(test latency-baseline)/(cutoff(20 s)-baseline)*100. Data were analyzed by a two-way ANOVA using a Bonferroni post-hoc test, *P<0.05, **P<0.01, ***P<0.001.
Morphine sulphate (10 mg/kg) was dissolved in 0.9% NSS (vehicle). The formulations were administered SC 1 hour prior to testing against vehicle. Data were analyzed by a two-way ANOVA using a Bonferroni multiple comparisons test, *P<0.05, ***P<0.001.
Morphine sulphate (10 mg/kg) was dissolved in 0.9% NSS (vehicle). The formulations were administered SC 1 hour prior to testing against vehicle. % MPE=Percent Maximum Possible Effect. % MPE=(test latency-baseline)/(cutoff(20 s)-baseline)*100. Data were analyzed by a two-way ANOVA using a Bonferroni multiple comparisons test, ***P<0.001.
The positive control, morphine sulfate in 0.9% NS was administered SC 1 hour prior to testing. Rats were assessed the day prior (BL) and then 1, 3 and 5 hours post-dosing. Tail Flick was set to 40 intensity and cutoff 20 seconds. Data were analyzed by a two-way ANOVA using a Bonferroni Multiple Comparisons Test, where *P<0.05,***P<0.001 and ****P<0.0001. Data are represented as the means+S.E.M of two combined studies.
Oxycodone hydrochloride (0.3-5 mg/kg) was dissolved in 0.9% normal saline solution (NSS)(vehicle) and administered SC 1 hour prior to testing against vehicle. Data were analyzed by a two-way ANOVA using a Bonferroni multiple comparisons test, ****P<0.001.
Oxycodone hydrochloride (0.3-5 mg/kg) was dissolved in 0.9% normal saline solution (NSS)(vehicle) and administered SC 1 hour prior to testing against vehicle. % MPE=Percent Maximum Possible Effect. % MPE=(test latency-baseline)/(cutoff(20 s)-baseline)*100. Data were analyzed by a two-way ANOVA using a Bonferroni multiple comparisons test, ****P<0.001.
Oxycodone HCl and vehicle were administered SC 1 hour prior to testing. Rats were assessed one day prior (BL) and then 1, 3 and 5 hours post-oxycodone administration. The tail flick was set to an intensity of 40 and the cutoff was 20 seconds. Oxycodone was dissolved in 0.9% (vehicle). […] Data were analyzed by a two-way ANOVA followed by the Bonferroni Multiple Comparisons Test where, *P<0.05 and ****P<0.001.
Oxycodone HCl was administered PO 1 hour prior to testing, while morphine sulfate, the positive control, was administered SC 1 Hour prior to testing. Behavior was assessed the day prior (BL) to dosing, and then 1, 3, 5 and 24 hours post-compound administration. The tail flick was set to an intensity of 40 and 20 seconds was used as the cutoff. Oxycodone was dissolved in water (vehicle), while morphine was dissolved in 0.9% NS. Data were analyzed by a two-way ANOVA using a Bonferroni Multiple Comparisons Test, where *P<0.05, **P<0.01, ***P<0.001 and * * * *P<0.0001.
Rats were assessed for tail flick latency the day prior to dosing, then 1.5, 3 and 5 hours post-morphine administration. Data were analyzed by a two-way ANOVA using the Bonferroni Multiple Comparisons Test, where ****P<0.0001 compared to vehicle+vehicle. Data are represented as the means+S.E.M.
Rats were assessed for thermal latency 1.5, 3 and 5 hours post-morphine administration. % MPE=Percent Maximum Possible Effect. % MPE=(test latency-baseline)/(cutoff(20 s)-baseline)*100. Data were analyzed by a two-way ANOVA using a Bonferroni multiple comparisons test for post-hoc analysis where *P<0.05 and ****P<0.001. Data are represented as the means+SEM.
Rats were tested 1 hour after oxycodone injection.

male Sprague-Dawley rats [4] = assay: Charcoal meal GI transit, opioid alone; conditions: for GI transit (% of the small intestine travelled by a charcoal meal): vs vehicle
Description: 0.5 hour later, a charcoal meal (1 ml/100 grams) was orally administered (PO) to the test subjects.
One hour after the charcoal meal, the test subjects were euthanized by CO2 and the gastrointestinal tract was removed from the stomach to the cecum. The length of the small intestine and the distance (cm) to the leading edge of the charcoal were recorded. Data were analyzed using a one-way ANOVA followed by the Dunnett's Multiple Comparisons test where *P<0.05, **P<0.01 and***P<0.001.
The length of the small intestine and the distance (cm) to the leading edge of the charcoal were recorded. Data were analyzed using a one-way ANOVA followed by Bonferroni's Multiple Comparisons Test where *P<0.05, **P<0.01 and ****P<0.001 vs. vehicle. Data are represented as the means+S.E.M.
One hour after charcoal, all rats were euthanized by CO2 and the GI tract was removed from the stomach to the cecum. The length of the small intestine and the distance (cm) to the leading edge of charcoal was recorded. Data were analyzed using a one-way ANOVA with Bonferonni's Post-Test where ****P<0.0001 vs. vehicle. Data are represented as the means+S.E.M.
One hour later, the rats were euthanized by CO2 and the gastrointestinal tract was removed from the stomach to the cecum. The length of the small intestine and the distance (cm) to the leading edge of charcoal were recorded. Data were analyzed using a one-way ANOVA followed by the Dunnett's Multiple Comparisons test where ***P<0.001. Data are represented as the mean+S.E.M.
Rats were dosed with Oxycodone HCl/Oxy or vehicle (water) PO once daily for 5 days (chronic). Additional groups were dosed only once on day 5 (acute). […] One hour after charcoal, all rats were euthanized by CO2 and the GI tract was removed from the stomach to the cecum. The length of the small intestine and the distance (cm) to the leading edge of charcoal was recorded. Data were analyzed using a one-way ANOVA with Bonferonni's Multiple Comparison Test where * P<0.05, ****P<0.0001 vs. vehicle (chronic), ### vs. oxycodone (acute). Data are represented as the means+S.E.M.

[5] = morphine sulphate 1-10 mg/kg SC 1 hour prior to testing
[6] = oxycodone hydrochloride 0.3-5 mg/kg SC 1 hour prior to testing

Compound	stomach weight (gastric emptying) (male Sprague-Dawley rats [1])	hot plate % MPE (male Sprague-Dawley rats [2]; [5])	hot plate latency to nocifensive response (male Sprague-Dawley rats [2]; [5])	tail flick % MPE (male Sprague-Dawley rats [3]; [5])	tail flick latency to nocifensive response (male Sprague-Dawley rats [3]; [5])	GI transit (% of the small intestine travelled by a charcoal meal) (male Sprague-Dawley rats [4]; morphine sulfate 1-10 mg/kg SC, 0.5 hour before charcoal meal)	rats found dead (male Sprague-Dawley rats [2]; oxycodone HCl 10 mg/kg SC, at the 3 hr time point)	hot plate MED (acute pain) (male Sprague-Dawley rats [2]; oxycodone HCl PO)	hot plate MED (acute pain) (male Sprague-Dawley rats [2]; oxycodone HCl SC)	hot plate % MPE (male Sprague-Dawley rats [2]; [6])	hot plate latency to nocifensive response (male Sprague-Dawley rats [2]; [6])	rats found dead (male Sprague-Dawley rats [3]; oxycodone HCl 10 mg/kg SC dosing group, at the 3 hr time point)	tail flick MED (acute pain) (male Sprague-Dawley rats [3]; oxycodone HCl PO)	tail flick MED (acute pain) (male Sprague-Dawley rats [3]; oxycodone HCl SC)	tail flick % MPE (male Sprague-Dawley rats [3]; [6])	tail flick latency to nocifensive response (male Sprague-Dawley rats [3]; [6])	tolerance to inhibition of GI transit on repeated dosing (male Sprague-Dawley rats [4]; oxycodone HCl PO once daily for 5 days (chronic) vs single dose on day 5 (acute))	GI transit (% of the small intestine travelled by a charcoal meal) (male Sprague-Dawley rats [4]; oxycodone hydrochloride 0.3-5 mg/kg SC, 1 hour before charcoal meal)
CN1CC[C@]23c4c5ccc(O)c4O[C@H]2[C@@H](O)C=C[C@H]3[C@H]1C5.O=S(=O)(O)O [morphine, morphine sulphate]	increased stomach weight due to delayed gastric emptying	increased % of the maximal possible effect	increased latency to nocifensive response	increased % of the maximal possible effect	increased latency to nocifensive response	decreases gastrointestinal transit	–	–	–	–	–	–	–	–	–	–	–	–
COc1ccc2c3c1O[C@H]1C(=O)CC[C@@]4(O)[C@@H](C2)N(C)CC[C@]314.Cl [oxycodone, oxycodone hydrochloride]	–	–	–	–	–	–	4 out of 10	10 mg/kg	3 mg/kg	increased % of the maximal possible effect	increased latency to nocifensive response	4 out of 10	10 mg/kg	3 mg/kg	increased % of the maximal possible effect	increased latency to nocifensive response	produces some tolerances to its acute effect on the inhibition of GI transit	decreases gastrointestinal transit
